Measurements reported in ChEMBL document CHEMBL5465560, “Selectivity Literature for EUbOPEN Chemogenomic Library” (2024).

Assays:
[1] = system: Epidermal growth factor receptor (Homo sapiens), P00533 [L858R,T790M]; details: at 10 µM
[2] = molecular target: T1, Rhodopsin kinase GRK7 (Homo sapiens) (UniProt Q8WTQ7); experiment: Selectivity interaction (KinomeScan (DiscoverX)) EUB0001049a GRK7; details: at 1 µM
T1 sequence (whole entry): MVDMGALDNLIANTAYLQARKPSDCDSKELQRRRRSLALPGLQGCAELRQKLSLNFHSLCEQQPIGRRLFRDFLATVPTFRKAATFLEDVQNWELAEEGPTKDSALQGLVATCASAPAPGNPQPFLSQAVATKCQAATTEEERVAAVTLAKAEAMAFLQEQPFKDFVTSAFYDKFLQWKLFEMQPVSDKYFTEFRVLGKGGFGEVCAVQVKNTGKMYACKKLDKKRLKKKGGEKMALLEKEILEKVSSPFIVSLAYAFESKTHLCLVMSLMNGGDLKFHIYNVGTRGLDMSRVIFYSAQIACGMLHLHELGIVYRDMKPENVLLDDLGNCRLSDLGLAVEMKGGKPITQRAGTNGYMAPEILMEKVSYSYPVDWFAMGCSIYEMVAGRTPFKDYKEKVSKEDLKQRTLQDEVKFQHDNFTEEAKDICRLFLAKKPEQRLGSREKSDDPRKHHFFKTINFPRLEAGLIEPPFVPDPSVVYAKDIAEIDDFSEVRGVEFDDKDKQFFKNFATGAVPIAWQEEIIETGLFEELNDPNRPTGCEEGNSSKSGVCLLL

[3] = molecular target: Ribosomal protein S6 kinase alpha-6 (Homo sapiens, UniProt Q9UK32); experiment: Selectivity interaction (Upstate Kinase Profiler service (Millipore)) EUB0000056c RPS6KA6; details: at 1 µM
Ribosomal protein S6 kinase alpha-6, sequence (Q9UK32 whole entry): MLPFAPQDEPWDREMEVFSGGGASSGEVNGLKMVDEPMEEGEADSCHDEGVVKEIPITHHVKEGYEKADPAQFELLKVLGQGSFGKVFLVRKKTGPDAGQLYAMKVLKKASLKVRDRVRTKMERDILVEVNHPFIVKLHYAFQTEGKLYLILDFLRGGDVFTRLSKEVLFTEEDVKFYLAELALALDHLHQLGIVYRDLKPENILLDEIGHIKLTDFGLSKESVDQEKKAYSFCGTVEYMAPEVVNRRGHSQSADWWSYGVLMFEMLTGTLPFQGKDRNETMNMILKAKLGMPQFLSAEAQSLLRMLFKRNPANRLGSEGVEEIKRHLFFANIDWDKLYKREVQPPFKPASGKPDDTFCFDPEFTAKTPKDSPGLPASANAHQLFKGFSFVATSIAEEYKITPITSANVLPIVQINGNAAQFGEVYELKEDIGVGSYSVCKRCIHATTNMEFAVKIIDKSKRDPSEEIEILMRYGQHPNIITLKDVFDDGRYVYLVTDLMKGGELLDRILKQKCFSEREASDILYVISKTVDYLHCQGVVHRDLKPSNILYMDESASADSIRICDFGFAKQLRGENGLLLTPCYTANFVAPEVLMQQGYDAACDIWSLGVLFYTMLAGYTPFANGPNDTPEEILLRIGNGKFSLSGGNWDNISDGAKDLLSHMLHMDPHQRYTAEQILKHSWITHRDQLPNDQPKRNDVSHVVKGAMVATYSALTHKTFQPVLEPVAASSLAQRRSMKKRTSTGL

[4] = molecular target: T2, Dual specificity protein kinase TTK (Homo sapiens) (UniProt P33981); experiment: Selectivity interaction (ProQinase) EUB0000171b TTK
T2 sequence (whole entry): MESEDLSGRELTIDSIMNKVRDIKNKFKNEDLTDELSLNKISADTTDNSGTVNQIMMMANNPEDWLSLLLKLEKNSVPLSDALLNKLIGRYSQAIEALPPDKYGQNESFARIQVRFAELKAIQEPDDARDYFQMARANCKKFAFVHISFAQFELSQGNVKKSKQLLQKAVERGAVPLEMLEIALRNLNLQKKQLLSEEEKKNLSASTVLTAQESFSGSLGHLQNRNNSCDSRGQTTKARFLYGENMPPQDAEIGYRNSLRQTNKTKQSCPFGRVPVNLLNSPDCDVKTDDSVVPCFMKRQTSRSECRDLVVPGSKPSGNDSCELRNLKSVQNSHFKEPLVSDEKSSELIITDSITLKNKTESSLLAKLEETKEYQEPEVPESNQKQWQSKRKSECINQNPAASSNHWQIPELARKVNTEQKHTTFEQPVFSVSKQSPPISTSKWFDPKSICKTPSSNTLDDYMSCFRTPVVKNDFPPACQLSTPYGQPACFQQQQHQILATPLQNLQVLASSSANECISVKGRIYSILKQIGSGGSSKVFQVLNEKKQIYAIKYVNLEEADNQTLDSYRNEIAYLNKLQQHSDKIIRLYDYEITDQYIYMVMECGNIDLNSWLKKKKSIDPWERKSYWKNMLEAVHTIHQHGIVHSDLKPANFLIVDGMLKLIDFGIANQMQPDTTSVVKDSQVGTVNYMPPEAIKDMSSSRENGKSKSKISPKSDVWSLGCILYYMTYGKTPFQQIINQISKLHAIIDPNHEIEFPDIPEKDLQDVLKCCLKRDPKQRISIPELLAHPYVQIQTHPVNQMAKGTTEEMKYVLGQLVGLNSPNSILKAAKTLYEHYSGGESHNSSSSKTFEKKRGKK

[5] = molecular target: Leukocyte tyrosine kinase receptor (Homo sapiens, UniProt P29376); experiment: Selectivity interaction (KinomeScan (DiscoverX)) EUB0001619a LTK; details: at 1 µM
Leukocyte tyrosine kinase receptor, sequence (P29376 whole entry): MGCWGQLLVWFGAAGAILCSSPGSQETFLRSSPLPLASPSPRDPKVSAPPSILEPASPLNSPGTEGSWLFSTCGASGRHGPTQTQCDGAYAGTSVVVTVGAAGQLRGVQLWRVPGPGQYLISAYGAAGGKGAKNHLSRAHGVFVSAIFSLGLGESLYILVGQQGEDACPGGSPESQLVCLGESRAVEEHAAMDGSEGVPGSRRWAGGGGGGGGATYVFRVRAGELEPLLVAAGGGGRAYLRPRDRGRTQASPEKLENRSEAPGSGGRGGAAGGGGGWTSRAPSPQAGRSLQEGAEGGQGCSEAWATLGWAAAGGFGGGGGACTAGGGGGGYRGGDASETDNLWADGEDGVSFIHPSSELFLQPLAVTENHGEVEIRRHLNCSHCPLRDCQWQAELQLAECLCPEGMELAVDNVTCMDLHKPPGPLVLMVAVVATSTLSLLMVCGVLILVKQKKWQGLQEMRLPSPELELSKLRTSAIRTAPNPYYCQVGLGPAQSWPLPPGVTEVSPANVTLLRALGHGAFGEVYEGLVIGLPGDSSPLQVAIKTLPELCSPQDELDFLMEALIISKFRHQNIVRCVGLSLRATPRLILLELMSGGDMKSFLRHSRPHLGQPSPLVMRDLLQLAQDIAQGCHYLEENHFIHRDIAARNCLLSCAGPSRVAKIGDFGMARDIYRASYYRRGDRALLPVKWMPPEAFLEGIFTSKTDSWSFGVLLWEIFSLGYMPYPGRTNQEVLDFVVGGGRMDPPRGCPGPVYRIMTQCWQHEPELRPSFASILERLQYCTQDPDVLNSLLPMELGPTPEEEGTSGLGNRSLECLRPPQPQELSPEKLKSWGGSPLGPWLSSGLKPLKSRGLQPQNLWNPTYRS

[6] = molecular target: T3, Serine/threonine-protein kinase LATS1 (Homo sapiens) (UniProt O95835); experiment: Selectivity interaction (ActivX KiNativ screen (kinase selectivity in THP-1 cell lysates)) EUB0000639a LATS1; assay type: subcellular; details: lysate, at 1 µM
T3 sequence (whole entry): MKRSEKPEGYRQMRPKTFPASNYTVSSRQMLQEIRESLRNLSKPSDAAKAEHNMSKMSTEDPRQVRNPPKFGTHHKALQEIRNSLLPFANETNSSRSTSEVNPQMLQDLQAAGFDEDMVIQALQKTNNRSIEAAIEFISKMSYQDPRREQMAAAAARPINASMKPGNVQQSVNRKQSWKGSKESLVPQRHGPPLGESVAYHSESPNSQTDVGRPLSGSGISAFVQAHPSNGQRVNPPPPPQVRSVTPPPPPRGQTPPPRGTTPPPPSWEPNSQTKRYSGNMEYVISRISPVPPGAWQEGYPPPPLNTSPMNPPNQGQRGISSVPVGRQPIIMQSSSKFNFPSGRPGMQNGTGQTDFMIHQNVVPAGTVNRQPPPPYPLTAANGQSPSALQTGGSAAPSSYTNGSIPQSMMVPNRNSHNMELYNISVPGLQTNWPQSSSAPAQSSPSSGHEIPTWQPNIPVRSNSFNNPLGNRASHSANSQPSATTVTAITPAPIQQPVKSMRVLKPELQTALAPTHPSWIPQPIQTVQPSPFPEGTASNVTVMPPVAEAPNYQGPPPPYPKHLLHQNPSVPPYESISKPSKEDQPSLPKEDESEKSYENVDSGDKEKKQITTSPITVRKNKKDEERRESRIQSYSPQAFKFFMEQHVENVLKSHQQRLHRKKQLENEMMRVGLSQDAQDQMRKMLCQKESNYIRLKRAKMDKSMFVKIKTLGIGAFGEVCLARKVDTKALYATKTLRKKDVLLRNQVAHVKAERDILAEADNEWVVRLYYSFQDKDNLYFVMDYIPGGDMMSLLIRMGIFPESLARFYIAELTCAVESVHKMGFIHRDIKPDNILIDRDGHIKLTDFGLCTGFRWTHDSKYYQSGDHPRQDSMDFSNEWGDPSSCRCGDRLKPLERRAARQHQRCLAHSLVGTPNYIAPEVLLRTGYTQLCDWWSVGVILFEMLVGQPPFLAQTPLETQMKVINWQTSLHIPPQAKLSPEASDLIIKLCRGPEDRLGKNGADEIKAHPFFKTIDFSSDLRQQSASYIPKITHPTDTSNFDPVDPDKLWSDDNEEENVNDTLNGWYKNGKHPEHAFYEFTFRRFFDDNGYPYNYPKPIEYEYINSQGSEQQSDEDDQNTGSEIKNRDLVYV

Epidermal growth factor receptor (Homo sapiens), P00533 [L858R,T790M], sequence (P00533 whole entry T790M/L858R, looked up): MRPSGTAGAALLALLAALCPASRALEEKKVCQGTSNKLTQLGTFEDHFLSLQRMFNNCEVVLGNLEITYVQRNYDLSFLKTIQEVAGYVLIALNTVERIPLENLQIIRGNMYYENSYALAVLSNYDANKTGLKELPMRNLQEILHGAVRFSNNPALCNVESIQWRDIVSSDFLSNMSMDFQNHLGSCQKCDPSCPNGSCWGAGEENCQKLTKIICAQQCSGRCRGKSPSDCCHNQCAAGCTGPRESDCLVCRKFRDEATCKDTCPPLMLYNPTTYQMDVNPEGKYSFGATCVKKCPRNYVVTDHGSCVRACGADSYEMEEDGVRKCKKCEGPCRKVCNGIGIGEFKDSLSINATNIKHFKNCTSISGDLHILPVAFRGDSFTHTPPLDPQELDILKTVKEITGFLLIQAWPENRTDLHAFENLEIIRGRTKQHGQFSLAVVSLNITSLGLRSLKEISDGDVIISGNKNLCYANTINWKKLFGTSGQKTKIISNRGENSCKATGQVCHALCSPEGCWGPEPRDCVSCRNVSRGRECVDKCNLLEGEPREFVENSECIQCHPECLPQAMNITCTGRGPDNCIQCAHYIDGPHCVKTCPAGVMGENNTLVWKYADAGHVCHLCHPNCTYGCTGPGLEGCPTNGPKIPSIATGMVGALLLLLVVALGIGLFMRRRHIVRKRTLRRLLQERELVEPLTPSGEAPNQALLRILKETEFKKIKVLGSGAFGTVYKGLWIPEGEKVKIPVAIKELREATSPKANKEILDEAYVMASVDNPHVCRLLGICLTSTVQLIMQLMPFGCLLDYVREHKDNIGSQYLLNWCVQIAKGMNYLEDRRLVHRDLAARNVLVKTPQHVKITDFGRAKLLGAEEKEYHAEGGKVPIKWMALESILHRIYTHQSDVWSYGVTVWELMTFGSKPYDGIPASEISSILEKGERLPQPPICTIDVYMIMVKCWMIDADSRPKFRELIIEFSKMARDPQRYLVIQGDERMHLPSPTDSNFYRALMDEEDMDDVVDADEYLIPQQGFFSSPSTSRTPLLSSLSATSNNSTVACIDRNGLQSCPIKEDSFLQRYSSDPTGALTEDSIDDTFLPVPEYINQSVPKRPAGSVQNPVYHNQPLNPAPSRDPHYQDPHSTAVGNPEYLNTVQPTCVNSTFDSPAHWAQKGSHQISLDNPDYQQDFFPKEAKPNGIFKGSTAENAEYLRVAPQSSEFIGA

Cc1cc([C@@H](C)Nc2ccccc2C(=O)O)c2nc(N3CCOCC3)cc(=O)n2c1 [AZD-6482]
% of control [1]: 99%

COc1cc(Nc2nc(C)cc(-c3cnn4nc(OC)ccc34)n2)cc(C(F)(F)F)c1
% of control [2]: 83%

Cc1ccc(-c2ccc3c(ccc4sc5c(c43)NC[C@@H](C)NC5=O)n2)cn1
% of inhibition [3]: 38%

C=CC(=O)Nc1cccc(C(=O)Nc2ccc(Nc3cc(-c4[nH]c(SC)nc4C)ccn3)cc2)c1
% of control ([4]; at 1 µM): 72%
% of control ([4]; at 5 µM): 34%

N#Cc1cccc(-c2c[nH]c3ncnc(N4CCOCC4)c23)c1
% of control [5]: 100%

CC[C@@H]1[C@H](F)C(=O)N[C@@H]1COc1nccc2cc(C(N)=O)c(OC)cc12 [ZIMLOVISERTIB]
% of inhibition [6]: -107%
